Reference: publication PMC6010085, “Inhibition of protein tyrosine phosphatase (PTP1B) and α-glucosidase by geranylated flavonoids from Paulownia tomentosa” (Journal of Enzyme Inhibition and Medicinal Chemistry, 2017)
Entries after “also recorded” stand apart in the source; their conditions may differ. Where two headings read alike, the source gives them in different places.

Legend:
[1] = molecular target: α-glucosidase (EC 3.2.1.20. from Baker's Yeast) (Saccharomyces cerevisiae, UniProt P53341); experiment: α-Glucosidase enzymatic assay (pNPG hydrolysis) and kinetic analysis; assay type: biochemical; details: for α-Glucosidase type of inhibition: Lineweaver–Burk and Dixon plots; for Vmax / Kik/Kiv: α-glucosidase, pNPG; for Kik/Kiv: Yang's method
α-glucosidase (EC 3.2.1.20. from Baker's Yeast), sequence (P53341 whole entry): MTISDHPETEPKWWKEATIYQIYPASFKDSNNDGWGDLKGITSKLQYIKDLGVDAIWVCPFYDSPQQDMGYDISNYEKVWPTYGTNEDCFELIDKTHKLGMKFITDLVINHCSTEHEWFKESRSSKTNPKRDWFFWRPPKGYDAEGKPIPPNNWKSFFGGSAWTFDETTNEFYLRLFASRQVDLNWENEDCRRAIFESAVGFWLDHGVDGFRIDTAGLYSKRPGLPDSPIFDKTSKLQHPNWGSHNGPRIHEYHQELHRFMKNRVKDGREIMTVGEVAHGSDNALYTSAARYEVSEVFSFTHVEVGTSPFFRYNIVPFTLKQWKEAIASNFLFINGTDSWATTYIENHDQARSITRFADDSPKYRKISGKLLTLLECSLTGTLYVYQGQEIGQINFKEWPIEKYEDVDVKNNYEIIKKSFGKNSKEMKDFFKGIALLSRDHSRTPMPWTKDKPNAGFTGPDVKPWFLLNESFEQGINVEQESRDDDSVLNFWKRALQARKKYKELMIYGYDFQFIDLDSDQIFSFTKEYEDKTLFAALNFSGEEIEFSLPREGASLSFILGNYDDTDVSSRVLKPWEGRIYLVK
Procedure: The α-glucosidase inhibitory activity was measured using reported experimental method with slight modifications. Phosphate buffer [50 mM potassium phosphate (pH 6.8)] was used for the whole assay. p-nitrophenyl-α-D-glucopyranoside (pNPG) was used as substrate, whose concentration 1.2 mM was prepared in phosphate buffer. Stock solution of α-glucosidase (EC 3.2.1.20. from Baker’s Yeast) containing 0.45 units of enzyme was also prepared in phosphate buffer. DMSO was used as a solvent for dissolving the test compounds, which were then diluted to their respective concentrations. Enzymatic assay was performed by mixing 40 μl of substrate (final concentration 0.15 mM) with 10 μl of inhibitors/vehicle, 130 μl phosphate buffer and 20 μl of enzyme in 96 well plate. As a result of the catalytic reaction, p-nitrophenol was produced as a reaction product which was subsequently measured using spectra max M3 multi-mode microplate reader (Molecular Devices) at 37 °C, at 405 nm for 15 min. […] The experiments were performed in triplicate.
(§1) Lineweaver–Burk plots were used for the analysis of enzyme’s inhibitory kinetics, caused by the tested bioactive compounds, and its comparison was performed with the data collected in the absence of inhibitors. Steady-state rates were determined at different inhibitor concentrations and at changing concentrations of substrate, then enzyme inhibition mechanism and related kinetic parameters were determined. Where applicable, KI and KIS, the two inhibition constants, when inhibitor binds with either free enzyme or the complex of enzyme–substrate, were derived from secondary plots of the slopes of the straight lines and vertical intercept (1/V^appmax), versus inhibitors concentrations. Equations (1)–(3) are the representatives equations for derivation of KI and KIS, respectively.
(§2) To determine enzyme inhibition parameters, an experiment was performed having substrate concentrations range (pNPP; 0.4–1.6 mM, pNPG; 0.075–0.3 mM), and different concentrations of tested compound, as indicated. To find out each curve parameter, a nonlinear regression program was used for data analysis using sigma Plot. Similarly Km and Vmax were derived from Lineweaver–Burk plots. Kik and Kiv rate constants were calculated according to Equations (4) and (5) proposed by Yang’s method. While Excel was used for linear regression analysis. (4) Km=Km,0×(1+[I]/Kik) (5) Vm=[…]

[2] = molecular target: T1, recombinant human protein tyrosine phosphate 1B (PTP1B, EC 3. 1. 3. 48) (Homo sapiens, UniProt P18031); experiment: biochemical; assay type: biochemical; design: Vmax: unit not given here; details: for PTP1B type of inhibition: Lineweaver–Burk / secondary plots; for Vmax / Kik/Kiv: pNPP; for Kik/Kiv: Yang's method
T1 sequence (P18031 1-435): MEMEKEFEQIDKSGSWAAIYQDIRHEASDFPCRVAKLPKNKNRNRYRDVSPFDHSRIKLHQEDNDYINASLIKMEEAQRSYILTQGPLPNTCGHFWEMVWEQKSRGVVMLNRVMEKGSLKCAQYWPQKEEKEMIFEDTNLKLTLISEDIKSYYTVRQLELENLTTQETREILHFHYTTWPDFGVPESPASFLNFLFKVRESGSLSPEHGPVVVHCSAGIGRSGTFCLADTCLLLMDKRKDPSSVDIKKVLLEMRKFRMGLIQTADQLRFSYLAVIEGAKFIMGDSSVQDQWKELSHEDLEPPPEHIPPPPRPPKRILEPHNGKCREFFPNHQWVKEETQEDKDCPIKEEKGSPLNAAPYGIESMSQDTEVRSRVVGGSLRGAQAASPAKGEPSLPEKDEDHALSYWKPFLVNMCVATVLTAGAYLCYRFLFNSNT
Procedure: The PTP1B inhibitory assay was carried out using a slight modification to literature reported method. p-nitrophenyl phosphate (pNPP) was used as a substrate for the measurement of enzyme activity. Buffer solution consisted of 25 mM Tris–HCl (pH 7.5), 2 mM β-mercaptoethanol, 1 mM (ethylenediaminetetraacetic acid) EDTA, and 1 mM dithiothreitol (DTT). The assay was performed by adding 10 μL test compound solution to 20 μL of enzyme (1 μg/ml), and then mixing with 40 μL of 4 mM pNPP in 130 μL of the given buffer using 96 well plate at 37 °C for 10 min. […] Lineweaver–Burk and Dixon plots methods were used to determine kinetic parameters. Sigma Plot (SPCC Inc., Chicago, IL) was used to calculate these parameters.
as §1, §2
First of all, the individual isolated constituents (1–8) from P. tomentosa fruits were tested in an in vitro PTP1B inhibition assay, using recombinant human protein tyrosine […] 1B (EC 3. 1. 3. 48)^1.

[3] = PTP1B, secondary plots, read-out: KI (inhibitor binds with free enzyme)
[4] = from Dixon plots, read-out: PTP1B Ki (inhibition constant)
[5] = pNPP substrate, triplicate, read-out: PTP1B IC50

Structure (SMILES) | α-Glucosidase type of inhibition [1] | PTP1B type of inhibition [2] | KIS (inhibitor binds with enzyme-substrate complex) ([2]; PTP1B, secondary plots) | Ki [2, 3] | Ki [2, 4] | IC50 [2, 5] | further results
CC(C)=CCC/C(C)=C/Cc1c(O)cc2c(c1O)C(=O)C[C@@H](c1ccc(O)cc1)O2 [Compound 1, mimulone] | Noncompetitive | Mixed TypeⅠ; also recorded: mixed type Ι; also recorded: Mixed Type I | 2.2 ± 0.1 µM |  |  |  | Vmax ([1]; [I] 12.5 µM): 0.117; Kik/Kiv ([1]; [I] 12.5 µM): 12.42; Vmax ([1]; [I] 25 µM): 0.082; Kik/Kiv ([1]; [I] 25 µM): 19.34; Vmax ([1]; [I] 50 µM): 0.054; Kik/Kiv ([1]; [I] 50 µM): 27.48; IC50 [2]: 1.9 ± 0.1 µM; Ki ([2]; KI (inhibitor binds with free enzyme), PTP1B, secondary plots, text without unit): 0.4 µM; Ki ([2]; PTP1B Ki (inhibition constant), from Dixon plots): 0.8 ± 0.1 µM; Vmax ([2]; PTP1B, [I] 0.78 µM): 0.012; Kik/Kiv ([2]; PTP1B, [I] 0.78 µM): 2.660; Vmax ([2]; PTP1B, [I] 1.56 µM): 0.009; Kik/Kiv ([2]; PTP1B, [I] 1.56 µM): 3.335; Vmax ([2]; PTP1B, [I] 3.13 µM): 0.007; Kik/Kiv ([2]; PTP1B, [I] 3.13 µM): 3.694; KIS (inhibitor binds with enzyme-substrate complex) ([2]; PTP1B, secondary plots, text without unit): 2.2; reversibility of PTP1B inhibition ([2]; initial velocity versus enzyme concentration at different inhibitor concentrations): reversible inhibitor
COc1cc([C@@H]2CC(=O)c3c(cc(O)c(C/C=C(\C)CCC=C(C)C)c3O)O2)ccc1O [Compound 2, 3′-O-methyldiplacone] | Noncompetitive | Mixed TypeⅠ; also recorded: Mixed Type I | 3.7 ± 0.2 µM | 2.6 ± 0.1 µM | 3.2 ± 0.2 µM | 3.9 ± 0.3 µM | 
COc1ccc([C@@H]2CC(=O)c3c(cc(O)c(C/C=C(\C)CCC=C(C)C)c3O)O2)cc1O [Compound 3, 4′-O-methyldiplacone] | Noncompetitive | Mixed TypeⅠ; also recorded: Mixed Type I | 10.1 ± 0.4 µM | 5.7 ± 0.3 µM | 8.1 ± 0.6 µM | 7.8 ± 0.6 µM | 
COc1c(O)cc(C2CC(=O)c3c(cc(O)c(C/C=C(\C)CCC=C(C)C)c3O)O2)cc1O (stereo not drawn) [Compound 4, 6-geranyl-3′,5,5′,7-tetrahydroxy-4′-methoxyflavanone] | Noncompetitive | Mixed TypeⅠ; also recorded: Mixed Type I | 11.2 ± 0.4 µM | 5.5 ± 0.3 µM | 6.1 ± 0.5 µM | 5.9 ± 0.4 µM | 
COc1cc([C@@H]2CC(=O)c3c(cc(O)c(C/C=C(\C)CCC=C(C)C)c3O)O2)cc(OC)c1O [Compound 5, 3′-O-Methyl-5′-O-methyldiplacone] | Noncompetitive | Mixed TypeⅠ; also recorded: Mixed Type I | 4.6 ± 0.2 µM | 2.8 ± 0.2 µM | 3.5 ± 0.3 µM | 3.8 ± 0.3 µM | 
COc1cc([C@H]2Oc3cc(O)c(C/C=C(\C)CCC=C(C)C)c(O)c3C(=O)[C@@H]2O)ccc1O [Compound 6, 3′-O-methyldiplacol] | Noncompetitive | Mixed TypeⅠ; also recorded: mixed type Ι; also recorded: Mixed Type I | 5.2 ± 0.2 µM | 3.5 ± 0.2 µM | 3.8 ± 0.3 µM | 4.9 ± 0.5 µM | 
COc1ccc([C@H]2Oc3cc(O)c(C/C=C(\C)CCC=C(C)C)c(O)c3C(=O)[C@@H]2O)cc1O [Compound 7, 4′-O-methyldiplacol] | Noncompetitive | Mixed TypeⅠ; also recorded: Mixed Type I | 13.7 ± 0.6 µM | 6.9 ± 0.4 µM | 7.9 ± 0.4 µM | 8.2 ± 0.6 µM | 
COc1c(O)cc([C@H]2Oc3cc(O)c(C/C=C(\C)CCC=C(C)C)c(O)c3C(=O)[C@@H]2O)cc1O [Compound 8] | Noncompetitive | Mixed TypeⅠ; also recorded: Mixed Type I | 10.3 ± 0.5 µM | 5.9 ± 0.3 µM | 6.2 ± 0.4 µM | 6.6 ± 0.5 µM | 
[Na+].[Na+].[Na+].[O]=[V]([O-])([O-])[O-] [NaVO4, reference compound] |  |  |  |  |  |  | IC50 ([1]; pNPG substrate, triplicate): > 200 µM
